{
  "source": "patent US8802162B2",
  "about": "“L-citrulline for treating endothelial dysfunction and erectile dysfunction” (Androsystems S.R.L., priority 2008, dated 2014)",
  "key": {"[1]": {"test": "Urinary excretion of cGMP, randomized prospective study in erectile dysfunction patients", "type": "in vivo", "details": "for Urinary excretion of cGMP, baseline: before administration; for Urinary excretion of cGMP, after administration: oral, L-citrulline 6 grams/day or L-arginine 3 grams/day, 7 days after beginning of administration", "procedure": "(§1) The effectiveness of the administration of L-citrulline in the treatment of erectile dysfunction has been verified by conducting a randomized prospective study on 20 patients, during which L-citrulline was administered orally with a dosage of 6 grams/day, in two separate 3-gram doses, to patients affected by erectile dysfunction.\n(§2) The effects of the administration were then tested at the biochemical level by studying the following parameters:\n4. urinary excretion of cGMP.\n(§3) The data related to the above cited biochemical parameters were acquired for patients subjected to the test 7 days after the beginning of the administration of the drug and are shown below in Table 1, Table 2, Table 3 and Table 4."}, "[2]": {"test": "Urinary excretion of nitrates, randomized prospective study in erectile dysfunction patients", "type": "in vivo", "details": "for Urinary excretion of nitrates, baseline: before administration; for Urinary excretion of nitrates, after administration: oral, L-citrulline 6 grams/day or L-arginine 3 grams/day, 7 days after beginning of administration", "procedure": "as §1, §2\n3. urinary excretion of nitrates;\nas §3"}, "[3]": {"test": "Blood L-arginine/ADMA ratio, randomized prospective study in erectile dysfunction patients", "type": "in vivo", "procedure": "as §1, §2, §3"}, "[4]": {"test_system": "cavernous arteries", "test": "Flow-mediated vasodilation of the cavernous arteries before and after therapy", "type": "in vivo, patients", "details": "oral 6 grams/day, before vs after therapy, in words", "procedure": "as §1\n(§4) Moreover, the effects at the clinical level were also tested by administering the “Erectile function assessment card” (IIF-5 questionnaire) to the patients and by measuring flow-mediated vasodilation of the cavernous arteries before and after therapy."}, "[5]": {"test_system": "erectile dysfunction", "test": "Erectile function assessment card (IIF-5 questionnaire)", "type": "in vivo, patients", "details": "oral 6 grams/day, in words", "procedure": "as §1, §4"}, "[6]": {"test": "Plasma levels of L-arginine after oral administration, randomized prospective study in erectile dysfunction patients", "type": "in vivo", "details": "in words", "procedure": "as §1, §2, §3"}},
  "data": [
    {"smiles": "N=C(N)NCCC[C@H](N)C(=O)O", "note": "[L-arginine, reference compound]", "values": [
      {"measurement": "Urinary excretion of cGMP, baseline", "setting": "[1]", "value": "38 ± 3.1", "unit": "nmol/mmol creatinine"},
      {"measurement": "Urinary excretion of cGMP, after administration", "setting": "[1]", "value": "39 ± 4.5", "unit": "nmol/mmol creatinine"},
      {"measurement": "Urinary excretion of nitrates, baseline", "setting": "[2]", "value": "91 ± 10", "unit": "nmol/mmol creatinine"},
      {"measurement": "Urinary excretion of nitrates, after administration", "setting": "[2]", "value": "93 ± 12", "unit": "nmol/mmol creatinine"}
    ]},
    {"smiles": "NC(=O)NCCC[C@H](N)C(=O)O", "note": "[L-citrulline]", "values": [
      {"measurement": "L-arginine/ADMA ratio, baseline", "setting": "[3]; baseline, before administration", "value": "183 ± 8"},
      {"measurement": "L-arginine/ADMA ratio, after administration", "setting": "[3]; oral, L-citrulline 6 grams/day or L-arginine 3 grams/day, 7 days after beginning of administration", "value": "290 ± 15"},
      {"measurement": "Increase in flow-mediated vasodilation at the level of the cavernous arteries", "setting": "[4]", "value": "statistically higher increase"},
      {"measurement": "Urinary excretion of cGMP, baseline", "setting": "[1]", "value": "40 ± 2.8", "unit": "nmol/mmol creatinine"},
      {"measurement": "Excretion of cGMP with respect to administration of L-arginine", "setting": "[1]; oral administration, in words", "value": "higher excretion"},
      {"measurement": "Urinary excretion of cGMP, after administration", "setting": "[1]", "value": "55 ± 3.8", "unit": "nmol/mmol creatinine"},
      {"measurement": "Urinary excretion of nitrates, baseline", "setting": "[2]", "value": "89 ± 9", "unit": "nmol/mmol creatinine"},
      {"measurement": "Excretion of nitrates with respect to administration of L-arginine", "setting": "[2]; oral administration, in words", "value": "higher excretion"},
      {"measurement": "Urinary excretion of nitrates, after administration", "setting": "[2]", "value": "133 ± 16", "unit": "nmol/mmol creatinine"},
      {"measurement": "IIF-5 questionnaire, components related to achieving and maintaining erection", "setting": "[5]", "value": "leads to a modification of the IIF-5 questionnaire"},
      {"measurement": "Plasma half-life of L-arginine with respect to administration of L-arginine", "setting": "[6]", "value": "statistically longer"},
      {"measurement": "Plasma levels of arginine with respect to administration of L-arginine", "setting": "[6]", "value": "statistically higher"}
    ]}
  ]
}
